Data as given in US20250154154A1 (Relay Binney Street, 2nd Floor, priority 2020, published 2025).

Experiments:
SRC = SRC (Homo sapiens, UniProt P12931); assay: SRC Biochemical Assay Protocol (microfluidic mobility shift assay, FLPeptide4 substrate)
Procedure, shortened: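 Recombinant SRC (0.26 nM) preincubated 30 min at RT with compound (0.0017–100 μM) and 1.5 μM FLPeptide4, then 50 μM ATP added; 90 min reaction in HEPES pH 7.4, 10 mM MgCl2, 1% DMSO, EDTA-quenched. Phosphopeptide quantified by microfluidic mobility shift; IC50 from 4-parameter logistic fit.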

RBE cells = assay: Cell Viability Protocol (CellTiterGlo), RBE cells; format: cell-based; details: RBE or SNU-1079 cells, 72 or 120 hour, cell line and time not given
Procedure, shortened: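 RBE cells plated at 1200/well in RPMI 1640 with 10% FBS, incubated 24 h, then dosed with compound from DMSO stocks and incubated 72 or 120 h at 37° C. CellTiterGlo luminescence normalised to DMSO control; IC50 from 4-parameter fit.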

[1] = test system: phospho-S6RP (Ser 235/236) in RBE cells; assay: Cellular Proliferation Protocol (cellular phospho-S6RP HTRF), RBE cells; format: cell-based; details: 6 h, 6 hours treatment, RBE or SNU-1079 cells, cell line not given
Procedure, shortened: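 RBE cells, 2000/well, seeded 24 h before 6 h compound treatment at 37° C. Lysates were probed with a Eu-cryptate/d2 HTRF antibody sandwich for phospho-S6RP (Ser 235/236), incubated overnight at room temperature. Signal normalised to DMSO control and IC50 fitted to a 4-parameter curve.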

SRC, sequence (P12931 whole entry, species assumed): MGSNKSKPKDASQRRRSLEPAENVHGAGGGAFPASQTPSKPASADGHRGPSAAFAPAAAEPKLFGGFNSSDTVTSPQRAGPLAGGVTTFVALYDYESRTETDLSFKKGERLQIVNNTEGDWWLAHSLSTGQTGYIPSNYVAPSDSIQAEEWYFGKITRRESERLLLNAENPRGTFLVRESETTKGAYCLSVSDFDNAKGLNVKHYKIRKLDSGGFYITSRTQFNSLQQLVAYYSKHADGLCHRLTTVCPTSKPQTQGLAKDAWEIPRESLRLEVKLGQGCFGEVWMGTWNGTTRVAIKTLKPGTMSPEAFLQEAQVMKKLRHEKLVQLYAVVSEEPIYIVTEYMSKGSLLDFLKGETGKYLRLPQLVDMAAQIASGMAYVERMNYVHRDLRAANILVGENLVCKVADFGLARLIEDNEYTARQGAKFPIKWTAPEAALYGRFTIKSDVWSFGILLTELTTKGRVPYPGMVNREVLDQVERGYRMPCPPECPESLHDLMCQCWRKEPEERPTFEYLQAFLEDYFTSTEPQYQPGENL

`Cc1cccc(Oc2ccc(-c3c(C#C[C@@H]4[C@H]5CN(C(=O)/C=C/CN(C)C)C[C@@H]45)n(C)c4ncnc(N)c34)cc2)n1` [II-208, (2E)-1-[(1R,5S,6S)-6-[2-(4-amino-7-methyl-5-[4-[(6-methylpyridin-2-yl)oxy]phenyl]-7H-pyrrolo[2,3-d]pyrimidin-6-yl)ethynyl]-3-azabicyclo[3.1.0]hexan-3-yl]-4-(dimethylamino) but-2-en-1-one] gave an IC50 (SRC) of 10 to 1000 nM, an IC50 (RBE cells) of 10 to 1000 nM and an IC50 [1] of 10 to 1000 nM.
Molecule `C=CC(=O)N1C[C@@H]2[C@@H](C#Cc3c(-c4ccc(Oc5ccccc5)cc4)c4c(N)ncnc4n3C3CCOC3)[C@@H]2C1` (stereo partly drawn) [II-209, 1-((1R,5S,6s)-6-((4-amino-5-(4-phenoxyphenyl)-7-(tetrahydrofuran-3-yl)-7H-pyrrolo[2,3-d]pyrimidin-6-yl)ethynyl)-3-aza-bicyclo[3.1.0]hexan-3-yl)prop-2-en-1-one] has an IC50 (SRC) of no more than 10 nM, an IC50 (RBE cells) of no more than 10 nM and an IC50 [1] of no more than 10 nM.
`C=CC(=O)N[C@@H](CO)C(=O)N1C[C@@H]2[C@@H](C#Cc3c(-c4ccc(Oc5ccccc5)cc4)c4c(N)ncnc4n3C)[C@@H]2C1` [II-210, N-[(2S)-1-[(1R,5S,6S)-6-[2-[4-amino-7-methyl-5-(4-phenoxyphenyl)-7H-pyrrolo[2,3-d]pyrimidin-6-yl]ethynyl]-3-azabicyclo[3.1.0]hexan-3-yl]-3-hydroxy-1-oxopropan-2-yl]prop-2-enamide] showed an IC50 (SRC) of no more than 10 nM, an IC50 (RBE cells) of no more than 10 nM and an IC50 [1] of no more than 10 nM.
Molecule `C=CC(=O)NCC(=O)N1C[C@@H]2[C@@H](C#Cc3c(-c4ccc(Oc5ccccc5)cc4)c4c(N)ncnc4n3C)[C@@H]2C1` [II-211, N-[2-[(1R,5S,6S)-6-[2-[4-amino-7-methyl-5-(4-phenoxyphenyl)-7H-pyrrolo[2,3-d]pyrimidin-6-yl]ethynyl]-3-azabicyclo[3.1.0]hexan-3-yl]-2-oxoethyl]prop-2-enamide] has an IC50 (SRC) of no more than 10 nM, an IC50 (RBE cells) of no more than 10 nM and an IC50 [1] of no more than 10 nM.
In the case of `C=CC(=O)NCC(=O)N1C[C@@H]2[C@@H](C#Cc3c(-c4ccc(Oc5cccc(C)n5)cc4)c4c(N)ncnc4n3C)[C@@H]2C1` [II-212, N-[2-[(1R,5S,6S)-6-[2-(4-amino-7-methyl-5-[4-[(6-methylpyridin-2-yl)oxy]phenyl]-7H-pyrrolo[2,3-d]pyrimidin-6-yl)ethynyl]-3-azabicyclo[3.1.0]hexan-3-yl]-2-oxoethyl]prop-2-enamide], the IC50 (SRC) is reported as no more than 10 nM, the IC50 (RBE cells) is reported as no more than 10 nM and the IC50 [1] is reported as no more than 10 nM.
Molecule `C=CC(=O)N1CCC(N2CC(C#Cc3c(-c4ccc(Oc5ccccc5)cc4)c4c(N)ncnc4n3C3CC(=O)N(C)C3)C2)CC1` (stereo not drawn) [II-213, 4-(6-((1-(1-acryloylpiperidin-4-yl)azetidin-3-yl)ethynyl)-4-amino-5-(4-phenoxyphenyl)-7H-pyrrolo[2,3-d]pyrimidin-7-yl)-1-methylpyrrolidin-2-one] has an IC50 (SRC) of 1000 to 10000 nM, an IC50 (RBE cells) of 1000 to 10000 nM and an IC50 [1] of 1000 to 10000 nM.
`C=CC(=O)N1CCN([C@H]2C[C@@H](C#Cc3c(-c4ccc(Oc5ccccc5)cc4)c4c(N)ncnc4n3C)C2)C(=O)C1` [II-214, 4-acryloyl-1-((1s,3s)-3-((4-amino-7-methyl-5-(4-phenoxyphenyl)-7H-pyrrolo[2,3-d]pyrimidin-6-yl)ethynyl)cyclobutyl) piperazin-2-one] showed an IC50 (SRC) of no more than 10 nM, an IC50 (RBE cells) of no more than 10 nM and an IC50 [1] of no more than 10 nM.
`C=CC(=O)N1CCC(N2CC(C#Cc3c(-c4ccc(Oc5cccc(C)n5)cc4)c4c(N)ncnc4n3C)C2)C(O)C1` (stereo not drawn) [II-215, 1-(4-(3-((4-amino-7-methyl-5-(4-(6-methylpyridin-2-yloxy)phenyl)-7H-pyrrolo[2,3-d]pyrimidin-6-yl)ethynyl)azetidin-1-yl)-3-hydroxypiperidin-1-yl)prop-2-en-1-one] showed an IC50 (SRC) of 10 to 1000 nM, an IC50 (RBE cells) of 10 to 1000 nM and an IC50 [1] of 10 to 1000 nM.
Work on `C=CC(=O)N1CCC(N2CC(C#Cc3c(-c4ccc(Oc5cccc(C)n5)cc4)c4c(N)ncnc4n3C)C2)C(F)C1` (stereo not drawn) [II-216, 1-(4-(3-((4-amino-7-methyl-5-(4-(6-methylpyridin-2-yloxy)phenyl)-7H-pyrrolo[2,3-d]pyrimidin-6-yl)ethynyl)azetidin-1-yl)-3-fluoropiperidin-1-yl)prop-2-en-1-one] yielded an IC50 (SRC) of 10 to 1000 nM, an IC50 (RBE cells) of 10 to 1000 nM and an IC50 [1] of 10 to 1000 nM.
`C=CC(=O)N1CC[C@@H](N2CC(C#Cc3c(-c4ccc(Oc5cccc(C)n5)c(OC)c4)c4c(N)ncnc4n3C)C2)[C@H](O)C1` [II-217, 1-((3R,4R)-4-(3-((4-amino-5-(3-methoxy-4-((6-methylpyridin-2-yl)oxy)phenyl)-7-methyl-7H-pyrrolo[2,3-d]pyrimidin-6-yl)ethynyl)azetidin-1-yl)-3-hydroxypiperidin-1-yl)prop-2-en-1-one] showed an IC50 (SRC) of 10 to 1000 nM, an IC50 (RBE cells) of 10 to 1000 nM and an IC50 [1] of 10 to 1000 nM.
Work on `C=CC(=O)N1C[C@@H]2[C@@H](C#Cc3c(-c4ccc(Oc5cccc(C)n5)c(OC)c4)c4c(N)ncnc4n3C)[C@@H]2C1` [II-218, 1-((1R,5S,6s)-6-((4-amino-5-(3-methoxy-4-((6-methylpyridin-2-yl)oxy)phenyl)-7-methyl-7H-pyrrolo[2,3-d]pyrimidin-6-yl)ethynyl)-3-azabicyclo[3.1.0]hexan-3-yl)prop-2-en-1-one] yielded an IC50 (SRC) of 10 to 1000 nM, an IC50 (RBE cells) of 10 to 1000 nM and an IC50 [1] of 10 to 1000 nM.
For `C=CC(=O)N1C[C@@H]2[C@@H](C#Cc3c(-c4ccc(Oc5cccc(C)n5)c(OC)c4)c4c(N)ncnc4n3C(C)C)[C@@H]2C1` [II-219, 1-((1R,5S,6s)-6-((4-amino-7-isopropyl-5-(3-methoxy-4-((6-methylpyridin-2-yl)oxy)phenyl)-7H-pyrrolo[2,3-d]pyrimidin-6-yl)ethynyl)-3-azabicyclo[3.1.0]hexan-3-yl)prop-2-en-1-one], the IC50 (SRC) was no more than 10 nM, the IC50 (RBE cells) was no more than 10 nM and the IC50 [1] was no more than 10 nM.
`C=CC(=O)N1CC[C@H](N2CC(F)(C#Cc3c(-c4ccc(Oc5cccc(C)n5)cc4)c4c(N)ncnc4n3C)C2)[C@@H](O)C1` [II-220, 1-((3S,4S)-4-(3-((4-amino-7-methyl-5-(4-((6-methylpyridin-2-yl)oxy)phenyl)-7H-pyrrolo[2,3-d]pyrimidin-6-yl)ethynyl)-3-fluoroazetidin-1-yl)-3-hydroxypiperidin-1-yl)prop-2-en-1-one] was tested, and the IC50 (SRC) was 10 to 1000 nM, the IC50 (RBE cells) was 10 to 1000 nM and the IC50 [1] was 10 to 1000 nM.
In the case of `C=CC(=O)N1CC[C@H](N2CC(C#Cc3c(-c4ccc(Oc5ccccc5)cc4)c4c(N)ncnc4n3C)C2)[C@@H](O)C1` [II-221, 1-((3S,4S)-4-(3-((4-amino-7-methyl-5-(4-phenoxyphenyl)-7H-pyrrolo[2,3-d]pyrimidin-6-yl)ethynyl)azetidin-1-yl)-3-hydroxypiperidin-1-yl)prop-2-en-1-one], the IC50 (SRC) is reported as no more than 10 nM, the IC50 (RBE cells) is reported as no more than 10 nM and the IC50 [1] is reported as no more than 10 nM.
Work on `CCN(CC)C/C=C/C(=O)N1C[C@@H]2[C@@H](C#Cc3c(-c4ccc(Oc5ccccc5)cc4)c4c(N)ncnc4n3C)[C@@H]2C1` [II-223, (E)-1-((1R,5S,6s)-6-((4-amino-7-methyl-5-(4-phenoxyphenyl)-7H-pyrrolo[2,3-d]pyrimidin-6-yl)ethynyl)-3-azabicyclo[3.1.0]hexan-3-yl)-4-(diethylamino)but-2-en-1-one] yielded an IC50 (SRC) of 10 to 1000 nM, an IC50 (RBE cells) of 10 to 1000 nM and an IC50 [1] of 10 to 1000 nM.
